The nature of data set [1]: in vitro. Particulars: human, microsomes, pH 7.4.
The test system of data set [2] is M. tuberculosis. Kind of data set: microbe, parasite or virus in culture. Format: cell-based. Particulars: for IC50: read-out: IC50 (μM) M.tb/REMA; for IC90: read-out: IC90 (μM) M.tb/REMA; for increase of activity as compared to compound I-12: tested on M. tuberculosis.
The subject of data set [3] is M. tuberculosis H37Rv WT. Briefly: THP-1 macrophage infection study, CFU counting. Format: cell-based, Mycobacterium tuberculosis. The following applies: for activity compared with Ethambutol (EMB) / activity compared with Streptomycin (STR) / reduction of bacteria as compared to the DMSO control: 10 μM.
For data set [4] the following is noted: human, microsomes, pH 7.4; for Compound remaining (%): 0.5 h.
Data set [5] concerns M. marinum WT bacteria expressing rfp. The following applies: 10 μM.
Method: To assess anti-bacterial activity of the compounds in an animal model, zebra-fish embryos were infected by injection of WT M. marinum into the cardinal vein. The bacteria express rfp, which enables the quantification of infection in vivo by measuring red fluorescence. After injection of the bacteria into the fish, the infection was allowed to establish for 20 h. Then, the test compounds or DMSO control were added for three days before the infection was quantified by measuring fluorescence in each fish. […] Dechorionated zebra fish embryos were one day post fertilization infected by microinjection into the cardinal vein with 70 M. marinum WT bacteria expressing rfp. 20 h after infection, the compounds were added to the fish water at the indicated concentrations. After 4 days post infection the fish were imaged on a fluorescent microscope (A) and red pixels were quantified (B). As control served non-treated fish and non-infected fish. The fish water of all groups contained equal amounts of DMSO. Each data point represents a single fish. […] Statistical analysis was determined by ANOVA testing by comparing each group to the non-treated group of fish. p>0.05, not significant, not indicated. p<0.05=*, p<0.01=**, p<0.001=***.
Data set [6] has as its system zebrafish embryos. Particulars: in vivo.
For data set [7], the system named is M. marinum. The class given is cell-based.
Setting [8] is: Mycobacterium tuberculosis, 168 h, replicating M. tuberculosis, seven days, 37° C.
[9] abbreviates: Mycobacterium tuberculosis, concentration that reduced bacterial viability to lower than 10%.
[10] abbreviates: THP-1 macrophages, MOI 1, day 5.
The mark [11] stands for this setting: Mycobacterium tuberculosis, 168 h.

Like-named read-outs stand apart in the source and are kept apart here.

Usually CLint scaled stands for the capacity of the preparation to metabolise the compound, expressed as a volume cleared per time. Read a high CLint scaled as faster metabolism. As for `CCCNC(=O)CSc1nc(-c2ccccc2)ns1` [Compound I-1], the intrinsic metabolic clearance (CLint scaled) at 15 μM in data set [1] is 13.6 mL/min/kg. Also, the IC50 in data set [2] (setting [8]) turned out to be 0.083 µM. In addition, the IC90 in data set [2] (setting [9]) was determined as 0.16 µM. The “increase of activity as compared to compound I-12” value (from here on “increase of activity”) in data set [2] is listed as “eight-fold”. In data set [3], the “activity compared with Ethambutol (EMB)” value was “as active as EMB”, the “activity compared with Streptomycin (STR)” value is listed as “higher activity than STR” and the “reduction of bacteria as compared to the DMSO control” value is on record as “approximately 100 fold”. In addition, the “concentration with significant decrease of bacterial load as compared to the DMSO control” value (shortened to “concentration with significant decrease”) in data set [3] (setting [10]) stood at 1 µM. The “Half-life” value in data set [4] (15 μM) stood at 45.6 min. The “Compound remaining (%)” value in data set [4] was 64%.
Regarding `CCCCCNC(=O)CSc1nc(-c2ccc(OC)cc2)ns1` [Compound I-2], in data set [2] (setting [8]), the IC50 is 0.098 µM. Further, the IC90 in data set [2] (setting [9]) was found to be 0.31 µM.
In the case of `CCCNC(=O)CSc1nc(-c2ccc(OC)cc2)ns1` [Compound I-3], in data set [1], the intrinsic clearance (CLint scaled) at 15 μM is 67.4 mL/min/kg. Moreover, in data set [2] (setting [8]), the IC50 came to 0.123 µM. Moreover, in data set [2] (setting [9]), the IC90 amounted to 0.63 µM. In addition, in data set [2], the “increase of activity” value is on record as “four-fold”. Besides, in data set [5], the bacterial fluorescence entry was “reduction of bacterial fluorescence to background levels”. Further, in data set [3], the “activity compared with Ethambutol (EMB)” value was “as active as EMB”, the “activity compared with Streptomycin (STR)” value was “higher activity than STR” and the “reduction of bacteria as compared to the DMSO control” value is on record as “approximately 100 fold”. Moreover, in data set [3] (setting [10]), the “concentration with significant decrease” value worked out at 1 µM. In data set [4] (15 μM), the “Half-life” value stood at 9 min. Further, in data set [4], the “Compound remaining (%)” value came to 11%.
Turning to `COCCNC(=O)CSc1nc(-c2ccc(OC)cc2)ns1` [Compound I-4], the IC50 in data set [2] (setting [8]) was 0.133 µM. Further, in data set [2] (setting [9]), the IC90 was 0.63 µM.
On to `O=C(CSc1nc(-c2ccccc2)ns1)NC1CCCC1` [Compound I-5], for which, in data set [1], the CLint scaled at 15 μM is 8.78 mL/min/kg. In data set [2], the IC50 amounted to 0.256 µM, the IC90 is 0.63 µM and the “increase of activity” value is “two-fold”. Moreover, in data set [3] (setting [10]), the “concentration required to reduce the bacterial load below the initial amount on day 0” value is 10 µM and the “concentration with significant decrease” value is 3 µM. In data set [4] (15 μM), the “Half-life” value came out at 70.8 min. Further, the “Compound remaining (%)” value in data set [4] is 75%.
Regarding `C=CCNC(=O)CSc1nc(-c2ccc(OC)cc2)ns1` [Compound I-6], in data set [2] (setting [11]), the IC50 is 0.291 µM. The IC90 in data set [2] (Mycobacterium tuberculosis) was 0.63 µM.
Regarding `C#CCNC(=O)CSc1nc(-c2ccc(OC)cc2)ns1` [Compound I-7], the IC50 in data set [2] (setting [8]) came out at 0.306 µM. Moreover, the IC90 in data set [2] (setting [9]) amounted to 0.63 µM.
In the same order, the values of `COc1cccc(-c2nsc(SCC(=O)NC3CCCC3)n2)c1` [Compound I-8] are 0.076 µM and 1.25 µM.
In the same order, the values of `COc1ccc(-c2nsc(SCC(=O)NC(C)C)n2)cc1` [Compound I-9] are 0.152 µM and 1.25 µM.
Consider `CCNC(=O)CSc1nc(-c2ccccc2)ns1` [Compound I-10], for which the IC50 in data set [2] (setting [8]) came out at 0.383 µM. Moreover, the IC90 in data set [2] (setting [9]) was determined as 1.25 µM.
The corresponding values for `COc1ccc(-c2nsc(SCC(=O)N3CCCCC3)n2)cc1` [Compound I-11] are 0.531 µM and 1.25 µM.
The corresponding values for `COc1ccc(-c2nsc(SCC(=O)NC3CC3)n2)cc1` [Compound I-13] are 0.478 µM and 1.25 µM.
The corresponding values for `CCCCNC(=O)CSc1nc(-c2ccc(OC)cc2)ns1` [Compound I-14] are 0.496 µM and 1.25 µM.
As for `COc1ccc(-c2nsc(SCC(=O)N3CCOCC3)n2)cc1` [Compound I-15], the IC50 in data set [2] (setting [8]) was found to be 0.121 µM. Moreover, the IC90 in data set [2] (setting [9]) came to 2.5 µM.
In the same order, the values of `Cc1cccc(-c2nsc(SCC(=O)NC3CCCC3)n2)c1` [Compound I-16] are 0.121 µM and 2.5 µM.
In the same order, the values of `O=C(CSc1nc(-c2ccc(Cl)cc2)ns1)NC1CCCC1` [Compound I-17] are 0.21 µM and 2.5 µM.
`Cc1cccc(-c2nsc(SCC(=O)N3CCCCC3)n2)c1` [Compound I-18, reference compound]: the IC50 in data set [2] (setting [8]) stood at 0.251 µM. For the same compound, the IC90 in data set [2] (setting [9]) turned out to be 2.5 µM.
In the same order, the values of `O=C(CSc1nc(-c2cccnc2)ns1)NC1CCCC1` [Compound I-19] are 0.502 µM and 2.5 µM.
The corresponding values for `COc1ccc(-c2nsc(SCC(=O)Nc3ccccn3)n2)cc1` [Compound I-20] are 0.502 µM and 2.5 µM.
In the same order, the values of `COc1ccc(-c2nsc(SCC(=O)Nc3ccccc3)n2)cc1` [Compound I-21] are 0.559 µM and 2.5 µM.
In the case of `COc1ccc(-c2nsc(SCC(=O)NC3CCCCC3)n2)cc1` [Compound I-22], the IC50 in data set [2] (setting [8]) was found to be 0.663 µM. Besides, the IC90 in data set [2] (setting [9]) turned out to be 2.5 µM.
In the same order, the values of `O=C(CSc1nc(-c2ccncc2)ns1)NC1CCCC1` [Compound I-23] are 0.762 µM and 2.5 µM.
In the same order, the values of `COc1ccc(-c2nsc(SCC(=O)Nc3cnccn3)n2)cc1` [Compound I-24] are 4.1 µM and 2.5 µM.
The corresponding values for `COc1ccc(-c2nsc(SCC(=O)OC3CCCC3)n2)cc1` [Compound I-25] are 0.526 µM and 5 µM.
On to `O=C(CSc1nc(-c2ccccc2)ns1)NC1CCCC1` [Compound I-26], for which, in data set [2] (setting [8]), the IC50 came to 1.17 µM. In addition, the IC90 in data set [2] (setting [9]) was determined as 5 µM.
In the same order, the values of `CNC(=O)CSc1nc(-c2ccc(OC)cc2)ns1` [Compound I-27] are 1.85 µM and 5 µM.
For `O=C(CSc1nc(-c2ccccc2)no1)NC1CCCC1` [Compound I-28], the IC50 in data set [2] (setting [11]) is 2.11 µM. Further, the IC90 in data set [2] (Mycobacterium tuberculosis) was 5 µM.
In the case of `CCCC(C)NC(=O)CSc1nc(-c2ccc(OC)cc2)ns1` (stereo not drawn) [Compound I-29], the IC50 in data set [2] (setting [8]) worked out at 1.25 µM. Besides, the IC90 in data set [2] (setting [9]) came to 10 µM.
Consider `COc1ccc(-c2nsc(SCC(=O)NCc3ccccc3)n2)cc1` [Compound I-30], for which the IC50 in data set [2] (setting [8]) came out at 2.42 µM. In addition, the IC90 in data set [2] (setting [9]) stood at 10 µM.
As to `O=C(CSc1nc(-c2ccccc2)no1)NC1CCCC1` [Compound I-31], in data set [2] (10 μM), the “growth of M. tuberculosis” value is “inhibited growth”. Also, in data set [2], the IC50 came out at 2.71 µM and the IC90 was 10 µM.
With `COc1ccc(-c2nsc(SCC(=O)NC(C)(C)C)n2)cc1` [Compound I-32], the IC50 in data set [2] (setting [8]) was determined as 0.109 µM. Further, the IC90 in data set [2] (setting [9]) is greater than 10 µM.
For `O=C(COc1nc(-c2ccccc2)ns1)NC1CCCC1` [Compound I-33], the CLint scaled at 15 μM in data set [1] was 10.1 mL/min/kg. Further, the IC50 in data set [2] (setting [8]) came out at 7.85 µM. In addition, in data set [2] (setting [9]), the IC90 amounted to 10 µM. In addition, in data set [4] (15 μM), the “Half-life” value was found to be 61.8 min. In data set [4], the “Compound remaining (%)” value was 72%.
Take `COc1ccc(-c2nsc(SCC(=O)NCCC(F)(F)F)n2)cc1` [Compound I-34]: the IC50 in data set [2] (setting [8]) is 0.038 µM. The IC90 in data set [2] (setting [9]) was 0.31 µM.
As to `O=C(CSc1nc(-c2ccccc2)ns1)NCCC(F)(F)F` [Compound I-35], the CLint scaled at 15 μM in data set [1] is 12.8 mL/min/kg. In addition, the IC50 in data set [2] (setting [8]) was determined as 0.224 µM. For the same compound, in data set [2] (setting [9]), the IC90 is 0.63 µM. Also, the “Half-life” value in data set [4] (15 μM) amounted to 48.6 min. Further, the “Compound remaining (%)” value in data set [4] is listed as 65%.
In the same order, the values of `CCCNC(=O)CSc1nc(-c2ccc(Cl)cc2)ns1` [Compound I-36] are 14.4 mL/min/kg, 0.058 µM, 0.16 µM, 43.2 min and 62%.
`O=C(CSc1nc(-c2ccc(Cl)cc2)ns1)NCCC(F)(F)F` [Compound I-37]: the CLint scaled in data set [1] is 18 mL/min/kg. In addition, the IC50 in data set [2] (setting [8]) turned out to be 0.116 µM. Moreover, in data set [2] (setting [9]), the IC90 was found to be 0.31 µM. Moreover, in data set [4], the “Compound remaining (%)” value worked out at 55% and the “Half-life” value came to 34.8 min.
On to `COc1ccc(-c2nsc(SCC(=O)NCC3CCCC3)n2)cc1` [Compound I-38, reference compound], for which, in data set [2] (setting [11]), the IC50 turned out to be 0.447 µM. For the same compound, the IC90 in data set [2] (Mycobacterium tuberculosis) worked out at 1.25 µM. Moreover, the “toxicity (survival of zebra fish embryos scored by heartbeat)” value in data set [6] is “somewhat less toxic than I-40 and I-41”.
For `Cc1cccc(-c2nsc(SCC(=O)NCC3CCCO3)n2)c1` (stereo not drawn) [Compound I-39, reference compound], the IC50 in data set [2] (setting [11]) is 0.248 µM. In data set [2] (Mycobacterium tuberculosis), the IC90 was found to be 0.63 µM. The “toxicity (survival of zebra fish embryos scored by heartbeat)” value in data set [6] is listed as “least toxic of the comparative compounds”.
The corresponding values for `CCOC(=O)CNC(=O)CSc1nc(-c2cccc(C)c2)ns1` [Compound I-40, reference compound] are 0.169 µM, 0.31 µM and “toxic”.
In the same order, the values of `CCOC(=O)CNC(=O)CSc1nc(-c2ccccc2)ns1` [Compound I-41, reference compound] are 0.269 µM, 0.63 µM and “toxic”.
`CCCNC(=O)COc1nc(-c2ccccc2)ns1` [Compound I-42]: the IC50 in data set [2] (setting [8]) was greater than 10 µM. Besides, the IC90 in data set [2] (setting [9]) is greater than 10 µM.
In the case of `CO[C@H]1/C=C/O[C@@]2(C)Oc3c(C)c(O)c4c(O)c(c(/C=N/N5CCN(C)CC5)c(O)c4c3C2=O)NC(=O)/C(C)=C\C=C\[C@H](C)[C@H](O)[C@@H](C)[C@@H](O)[C@@H](C)[C@H](OC(C)=O)[C@@H]1C` [Rifampin, reference compound], the “bacterial viability (REMA) readout, control condition” value in data set [7] is listed as “negative”.

For the origin of these results see patent US12472166B2, “Inhibition of mycobacterial type VII secretion” (priority 2019, dated 2025).
